pIC50: −log10 of the molar value.
System: NCI-H211 complex spheroid viability
Test: Anticancer human tumor NCI-H211 cell line growth inhibition [LSD1];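 also: luminescent viability read after seven days of drug exposure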;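 as to viability, T/C: 100% = DMSO vehicle control viability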
Settings: for pIC50: curve of first compound; for viability, T/C: stronger effect = lower value
Outline: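 Complex spheroids of tumor cells with HUVEC and human MSCs, exposed to iadademstat combined with other agents. Each agent tested in half-log steps from near clinical Cmax (else 10 microM top), DMSO ≤0.25%.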

[1] = second compound 0.1 µM, first compound 0.0316 µM
[2] = second compound 0.1 µM, first compound 0.1 µM
[3] = second compound 0.1 µM, first compound 0.316 µM
[4] = second compound 0.1 µM, first compound 1 µM
[5] = second compound 0.1 µM, first compound 3.16 µM
[6] = second compound 0.1 µM, first compound 10 µM
[7] = second compound 0.316 µM, first compound 0.0316 µM
[8] = second compound 0.316 µM, first compound 0.1 µM
[9] = second compound 0.316 µM, first compound 0.316 µM
[10] = second compound 0.316 µM, first compound 1 µM
[11] = second compound 0.316 µM, first compound 3.16 µM
[12] = second compound 0.316 µM, first compound 10 µM
[13] = second compound 1 µM, first compound 0.0316 µM
[14] = second compound 1 µM, first compound 0.1 µM
[15] = second compound 1 µM, first compound 0.316 µM
[16] = second compound 1 µM, first compound 1 µM
[17] = second compound 1 µM, first compound 3.16 µM
[18] = second compound 1 µM, first compound 10 µM
[19] = second compound 3.16 µM, first compound 0.0316 µM
[20] = second compound 3.16 µM, first compound 0.1 µM
[21] = second compound 3.16 µM, first compound 0.316 µM
[22] = second compound 3.16 µM, first compound 1 µM
[23] = second compound 3.16 µM, first compound 3.16 µM
[24] = second compound 3.16 µM, first compound 10 µM
[25] = second compound 10 µM, first compound 0.0316 µM
[26] = second compound 10 µM, first compound 0.1 µM
[27] = second compound 10 µM, first compound 0.316 µM
[28] = second compound 10 µM, first compound 1 µM
[29] = second compound 10 µM, first compound 3.16 µM
[30] = second compound 10 µM, first compound 10 µM

SMILES	pIC50 (second compound 0.1 µM)	pIC50 (second compound 0.316 µM)	pIC50 (second compound 1 µM)	pIC50 (second compound 3.16 µM)	pIC50 (second compound 10 µM)	viability, T/C [1]	viability, T/C [2]	viability, T/C [3]	viability, T/C [4]	viability, T/C [5]	viability, T/C [6]	viability, T/C [7]	viability, T/C [8]	viability, T/C [9]	viability, T/C [10]	viability, T/C [11]	viability, T/C [12]	viability, T/C [13]	viability, T/C [14]	viability, T/C [15]	also measured
CC1(C)CCC(CN2CCN(c3ccc(C(=O)NS(=O)(=O)c4ccc(NCC5CCOCC5)c([N+](=O)[O-])c4)c(Oc4cnc5[nH]ccc5c4)c3)CC2)=C(c2ccc(Cl)cc2)C1 + NC1CC1c1ccc(-c2cccc(O)c2)cc1	> 7.50	> 7.50	> 7.50	> 7.50	> 7.50	43.8%	38.7%	35%	53.4%	100%	52.7%	36.8%	37.9%	37.2%	53.2%	100%	65.1%	27.5%	47.8%	26.1%	viability, T/C [16]: 44.5%; viability, T/C [17]: 90.8%; viability, T/C [18]: 55%; viability, T/C [19]: 32.1%; viability, T/C [20]: 28.1%; viability, T/C [21]: 29.8%; viability, T/C [22]: 30.8%; viability, T/C [23]: 58.9%; viability, T/C [24]: 46.2%; viability, T/C [25]: 32.7%; viability, T/C [26]: 26.2%; viability, T/C [27]: 21.2%; viability, T/C [28]: 28.2%; viability, T/C [29]: 30.5%; viability, T/C [30]: 21%
CC1COCCN1c1cc(C2(S(C)(=N)=O)CC2)nc(-c2ccnc3[nH]ccc23)n1 (stereo not given) + NC1CC1c1ccc(-c2cccc(O)c2)cc1	6.59	6.58	6.42	6.50	6.94	89.3%	68.7%	48.5%	19.1%	4.67%	2.73%	85.4%	72.9%	46.9%	13.5%	5.02%	2.53%	74.2%	64.3%	57.5%	viability, T/C [16]: 15%; viability, T/C [17]: 5.48%; viability, T/C [18]: 3.11%; viability, T/C [19]: 69.6%; viability, T/C [20]: 73.2%; viability, T/C [21]: 48.8%; viability, T/C [22]: 16.3%; viability, T/C [23]: 5.24%; viability, T/C [24]: 3%; viability, T/C [25]: 65.7%; viability, T/C [26]: 51.6%; viability, T/C [27]: 33.1%; viability, T/C [28]: 14.5%; viability, T/C [29]: 5.1%; viability, T/C [30]: 3.28%

Reference: PubChem BioAssay AID1918940 (Molecular Pharmacology Branch, DTP, NCI, 2023)
